Experimental data published in patent US20250262228A1, “TREATMENT OF SPASTICITY AND PAIN IN RENALLY-IMPAIRED PATIENTS” (Jazz Pharmaceuticals Research UK Limited., priority 2022, published 2025).

Legend:
[1] = for Cmax, Geometric LS Mean Ratio (Severe RI/Normal), Estimate / AUClast, Geometric LS Mean Ratio (Severe RI/Normal), Estimate: plasma, mixed model; for Cmax, Geometric LS Mean Ratio (Severe RI/Normal), Estimate / AUClast, Geometric LS Mean Ratio (Severe RI/Normal), Estimate / increase in AUClast in severe renal impairment versus normal renal function / AUC0-tlast Fold Change from Normal / increase in AUC in the renally impaired group compared to the normal group / mean plasma concentrations over time in renally impaired participants versus normal: 4 sprays; for AUClast, Geometric LS Mean Ratio (Severe RI/Normal), Estimate: significant when ratio >=2.0 plus 90% CI outside 0.5-2.0; for elimination in patients with renal impairment: renally impaired vs normal, after oromucosal spray; for increase in AUClast in severe renal impairment versus normal renal function / increase in AUC in the renally impaired group compared to the normal group: severe renal impairment vs normal, oromucosal spray; for AUC0-tlast Fold Change from Normal / mean plasma concentrations over time in renally impaired participants versus normal: severe renal impairment; for mean plasma concentrations over time in renally impaired participants versus normal: FIGS. 1-4
Excerpt: Rationale: To date, no studies of administering the disclosed oromucosal spray in patients with varying degrees of renal impairment have been conducted. The present trial investigated the effects of the oromucosal spray in subjects with severe renal impairment. The principal aim of this trial was to assess the pharmacokinetic (PK) parameters following oromucosal administration in patients with severe renal impairment and individually matched healthy participants (i.e., otherwise identical patients with normal renal function).
Primary Objectives: Evaluated and compared the PK parameters of the oromucosal spray in participants with severe renal impairment or End-Stage Renal Disease (ESRD) to the PK profile in matched participants with normal renal function.
Primary Endpoints: The PK parameters, derived from the plasma concentration-time (Cmax) and area under the concentration-time curve calculated to the last concentration at time t (AUC0-t), or 48 hours (AUC0-48), for THC, CBD, and metabolites of THC and CBD (e.g., 11-OH-THC and 7-COOH-CBD).
The 4 sprays administered a total of 10.8 mg THC and 10 mg CBD. The duration of the trial was approximately 45 days, which included a screening period (up to 4 weeks), a treatment period (48 hours) and a safety follow-up period (2 weeks). Screening was performed within 28 to 2 days before dosing, and the assessments included measurement of serum creatinine to assess the eGFR as determined by the modification of diet in renal disease formula (MDRD) to verify initial participant eligibility for trial participation. Participants entered the screening period (Day −28 to −1). From Day −1, screened participants who continued to meet eligibility criteria were admitted to the clinical research facility and placed under observation continually from dosing until 48 hours postdose. […] On Day 1, participants received 4 sprays of the oromucosal spray.
Formulation Mode of Administration, Dose, and Regimen: The oromucosal spray was formulated as a mixture of THC and CBD extracts derived from Cannabis sativa L. The formulation contains THC and CBD as the most abundant cannabinoid constituents and also contains minor constituents including related cannabinoids and non-cannabinoid plant components, such as terpenes, sterols, and triglycerides. The spray contains 27 mg/mL of THC and 25 mg/mL of CBD dissolved in the excipients (e.g., ethanol and propylene glycol). Each spray delivers 100 μL containing 2.7 mg of THC and 2.5 mg of CBD.
Procedures: PK samplings were taken as close as to the nominal time point. Participants fasted overnight for at least 10 hours prior to the administration and for at least 4 hours thereafter. Standardized meals and beverages were provided at approximately 4 hours and 9 hours after dosing. With the exception of the water administered at the time of dosing, water was not permitted from 1 hour before until 1 hour after dosing. […] Cannabis or use of anticonvulsants, antidepressants, antipsychotic and anxiolytic medications were not allowed throughout the trial. Alcohol, nicotine products, and consuming food or beverages containing methylxanthines (caffeinated food or beverages) were prohibited for 24 hours prior to each visit and throughout the inpatient period.

[2] = renally impaired patients administered highly purified CBD; cited from earlier work

Compound | Cmax, Geometric LS Mean Ratio (Severe RI/Normal), Estimate [1] | AUClast, Geometric LS Mean Ratio (Severe RI/Normal), Estimate [1] | elimination in patients with renal impairment [1] | increase in AUClast in severe renal impairment versus normal renal function [1] | AUC0-tlast Fold Change from Normal [1] [fold] | increase in AUC in the renally impaired group compared to the normal group [1] [fold] | mean plasma concentrations over time in renally impaired participants versus normal [1] | clinically relevant elevations of CBD, 7-OH-CBD and 7-COOH-CBD (mean AUClast ratios greater than 2 between the renally impaired and the control) [2]
C=C(C)[C@@H]1CCC(C(=O)O)=C[C@H]1c1c(O)cc(CCCCC)cc1O [7-COOH-CBD] | 1.4 | 1.92 | relatively unchanged | < 2 fold | 1.92 | – | – | –
C=C(C)[C@@H]1CCC(CO)=C[C@H]1c1c(O)cc(CCCCC)cc1O [7-OH-CBD] | 1.89 | 4.59 | clinically significant prolonged elimination | approximately 3 fold | 4.59 | 4.59 | – | –
CCCCCc1cc(O)c2c(c1)OC(C)(C)[C@@H]1CCC(C)=C[C@@H]21 [THC, Δ-9-tetrahydrocannabinol, reference compound] | 0.8 | 1.34 | relatively unchanged | – | 1.34 | – | elevated | –
CCCCCc1cc(O)c2c(c1)OC(C)(C)[C@@H]1CCC(CO)=C[C@@H]21 [11-OH-THC] | 2.13 | 3.18 | clinically significant prolonged elimination | – | 3.18 | 3.18 | Much higher | –
CCCCCc1cc(O)c2c(c1)OC(C)(C)[C@@H]1CCC(C(=O)O)=C[C@@H]21 [11-COOH-THC] | 1.15 | 1.26 | relatively unchanged | – | 1.26 | – | – | –
C=C(C)[C@@H]1CCC(C)=C[C@H]1c1c(O)cc(CCCCC)cc1O [highly purified form of CBD] | – | – | – | – | – | – | – | not observed
C=C(C)[C@@H]1CCC(C)=C[C@H]1c1c(O)cc(CCCCC)cc1O [CBD, Cannabidiol, reference compound] | 1.11 | 1.95 | relatively unchanged | – | 1.95 | – | elevated | –
